Assays:
PC3 cells = conditions: androgen independent PC3 cells; 10 nM DHT for indicated times; Western blot
Procedure: In FIG. 2B, PC3 cells were treated with 10 nM DHT for indicated times, cells were collected and cellular extracts were prepared and analyzed for Hexim-1 and GAPDH. The histogram indicates a ratio between Hexim-1 and GAPDH. Data are expressed as means±SE of 3 independent experiments.

LNCaP cell line = conditions: VEGF 10 ng/mL or 10 nM DHT for 3, 6, 12 and 24 hr, Western blot densitometry, P<0.05 vs control
Procedure: In this example, to determine the responsiveness of Hexim-1 to androgen and VEGF in the epithelial prostate LNCap cell line, LNCap cells were treated with VEGF (10 ng/mL) or 10 nM dihydrotestosterone (DHT) for 3, 6, 12 and 24 hours, with the change in expression of Hexim-1 protein evaluated by Western blot.
FIG. 2A illustrates the epithelial prostate LNCaP cell line which was treated with VEGF (10 ng/ml) or 10 nM dihydrotestosterone (DHT) 10 nM for 3, 6, 12 and 24 hr. Protein extracts were obtained from each time point and the changes in the protein expression of Hexim-1, p-Akt and GAPDH evaluated by Western blot. The histogram indicates the ratio between p-AKT and GAPDH and the ratio of Hexim-1 to GAPDH as obtained by densitometry analysis of the Western blots. Data are expressed as means±SE of 4 independent experiments.

androgen receptor (AR) = androgen receptor (AR) (UniProt P19091)
UniProt P19091, sequence (P19091 whole entry): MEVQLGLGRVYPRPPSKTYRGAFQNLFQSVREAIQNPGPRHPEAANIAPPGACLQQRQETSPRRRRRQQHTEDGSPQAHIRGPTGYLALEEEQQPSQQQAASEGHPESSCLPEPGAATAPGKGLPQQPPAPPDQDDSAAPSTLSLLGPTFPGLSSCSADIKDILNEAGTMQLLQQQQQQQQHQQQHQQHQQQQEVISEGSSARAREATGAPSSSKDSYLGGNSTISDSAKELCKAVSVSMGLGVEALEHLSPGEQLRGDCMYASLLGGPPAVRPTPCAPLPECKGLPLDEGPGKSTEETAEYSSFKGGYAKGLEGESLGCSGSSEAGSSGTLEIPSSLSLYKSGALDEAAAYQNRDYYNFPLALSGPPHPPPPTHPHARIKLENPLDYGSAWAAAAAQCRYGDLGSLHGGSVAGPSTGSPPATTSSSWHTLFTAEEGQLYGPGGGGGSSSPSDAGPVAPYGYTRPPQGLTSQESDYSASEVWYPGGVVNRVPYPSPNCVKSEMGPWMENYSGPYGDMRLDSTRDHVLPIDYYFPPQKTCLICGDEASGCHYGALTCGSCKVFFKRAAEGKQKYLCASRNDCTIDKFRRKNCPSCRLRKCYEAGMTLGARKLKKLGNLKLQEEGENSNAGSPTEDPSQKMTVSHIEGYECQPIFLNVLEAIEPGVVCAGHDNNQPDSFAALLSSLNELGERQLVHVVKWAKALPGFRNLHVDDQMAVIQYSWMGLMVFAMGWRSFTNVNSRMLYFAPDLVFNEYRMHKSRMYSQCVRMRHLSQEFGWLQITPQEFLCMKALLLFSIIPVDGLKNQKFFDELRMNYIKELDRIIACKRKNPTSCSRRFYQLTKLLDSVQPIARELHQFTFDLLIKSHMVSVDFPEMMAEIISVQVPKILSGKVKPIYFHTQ

Row | Compound | Hexim-1 levels (ratio between Hexim-1 and GAPDH) (PC3 cells) | Hexim-1 protein levels (ratio of Hexim-1 to GAPDH) (LNCaP cell line) | p-Akt levels (ratio between p-AKT and GAPDH) (LNCaP cell line) | serine-81 phosphorylation of the androgen receptor (Western blot after immunoprecipitation) (androgen receptor (AR))
1 | C[C@]12CCC(=O)C[C@@H]1CC[C@@H]1[C@@H]2CC[C@]2(C)[C@@H](O)CC[C@@H]12 [DHT, dihydrotestosterone] | not changed | induced | correlated with the increased Hexim-1 expression | –
2 | VEGF | – | induced | correlated with the increased Hexim-1 expression | –
3 | cyclin dependent kinase 9 (Cdk9) | – | – | – | the serine phosphorylation of AR is significantly increased
